One assay concerns MOR271-1. As to the kind of experiment: CRE-luciferase assay of odorant receptor activation, enantiomeric pairs. Format: cell-based, mouse. Particulars: CRE-luciferase in Hana3A cells; (+) versus (−) enantiomer; FIG. 6. An excerpt:
(§1) Cloning mouse and human ORs. 219 mouse and 245 human odorant receptors were cloned with sequence information from The Olfactory Receptor Database (Healy et al., Chemical Senses 22, 321-6 (1997); herein incorporated by reference in its entirety). […] OR open reading frames were amplified from genomic DNA using proofreading KOD DNA polymerase (Toyobo/Novagen) and subcloned into pCI expression vectors (Promega) containing the first 20 residues of human rhodopsin (Rho tag). The sequences of the cloned receptors were verified by sequencing (3100 Genetic Analyzer, ABI Biosystems). Immunocytochemistry and FACS analysis. […] The intensity of receptor cell surface expression was calculated as the ratio of PE and GFP expression. […] Luminescence was measured using a Wallac Victor 1420 plate reader (Perkin-Elmer). All luminescence values were divided by the Renilla Luciferase activity to control for transfection efficiency in a given well. Normalized luciferase activity was calculated using the formula (LN−Lmin)/(Lmax−Lmin), where LN is the luminescence of firefly luciferase in response to the odorant, Lmin is the minimum luciferase value on a plate or set of plates, and Lmax is the maximum luciferase value on a plate or set of plates. The data was analyzed using Microsoft Excel and GraphPad Prism 4. […]

For assay [1], the system named is mouse odorant receptors (ORs). As to the kind of experiment: CRE-luciferase assay of odorant receptor activation (Dual-Glo, Hana3A cells, RTP1S), dose-response EC50. Format: cell-based. Conditions: 0 = no response; for log EC50, MOR138-1: receptor MOR138-1; for log EC50, MOR139-1: receptor MOR139-1; for log EC50, MOR189-1: receptor MOR189-1; for log EC50, MOR272-1: receptor MOR272-1; for log EC50, MOR273-1: receptor MOR273-1.

Assay [2] addresses T1, human odorant receptors (ORs) (Homo sapiens, UniProt Q9H255).
T1 construct: OR open reading frames were amplified from genomic DNA; expressed in transfected cells; host or cells: Hana3A cells, co-transfected with RTP1S, CRE-luciferase and pRL-SV40
T1 sequence (Q9H255 1-320): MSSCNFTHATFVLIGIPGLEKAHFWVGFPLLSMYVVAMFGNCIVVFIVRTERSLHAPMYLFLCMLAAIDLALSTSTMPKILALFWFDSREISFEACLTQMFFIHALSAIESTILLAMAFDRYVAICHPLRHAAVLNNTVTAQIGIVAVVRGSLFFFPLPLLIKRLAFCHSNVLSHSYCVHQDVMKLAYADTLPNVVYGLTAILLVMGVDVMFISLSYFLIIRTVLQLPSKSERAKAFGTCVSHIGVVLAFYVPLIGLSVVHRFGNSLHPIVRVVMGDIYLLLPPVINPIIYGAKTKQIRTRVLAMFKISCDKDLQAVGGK
The description is as above. Format: cell-based. Particulars: receptor OR51E2; read-out: log EC50 of odorant at OR51E2 (0 = no response) (converted). The procedure, abridged:
(§2)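 Hana3A cells were co-transfected with Rho-tagged OR, RTP1S, CRE-luciferase and pRL-SV40, then exposed to odorant in CD293 medium for 4 hrs at 37° C. Firefly luminescence was divided by Renilla and normalized as (LN−Lmin)/(Lmax−Lmin) per plate set. Each dose was tested at least three times, and EC50 came from sigmoidal fits.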

The target in assay [3] is T2, human odorant receptors (ORs) (Homo sapiens, UniProt Q8NHC4).
T2 construct: OR open reading frames were amplified from genomic DNA; expressed in transfected cells; host or cells: Hana3A cells, co-transfected with RTP1S, CRE-luciferase and pRL-SV40
T2 sequence (Q8NHC4 1-309): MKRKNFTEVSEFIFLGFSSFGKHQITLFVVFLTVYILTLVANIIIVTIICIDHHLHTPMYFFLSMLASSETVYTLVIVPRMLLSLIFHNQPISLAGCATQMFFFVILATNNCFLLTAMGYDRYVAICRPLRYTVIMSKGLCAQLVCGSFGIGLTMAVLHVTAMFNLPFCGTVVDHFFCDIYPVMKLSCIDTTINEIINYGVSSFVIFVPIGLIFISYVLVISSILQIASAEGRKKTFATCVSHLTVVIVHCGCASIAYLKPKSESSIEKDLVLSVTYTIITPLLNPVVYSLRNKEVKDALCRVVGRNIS
Described as above. Conditions: receptor OR10J5; read-out: log EC50 of odorant at OR10J5 (0 = no response) (converted). Format: cell-based. The procedure, abridged: as §2

For assay [4], the target named is T3, mouse odorant receptors (ORs) (Mus musculus, UniProt P23275).
T3 construct: OR open reading frames were amplified from genomic DNA; expressed in transfected cells; host or cells: Hana3A cells, co-transfected with RTP1S, CRE-luciferase and pRL-SV40
T3 sequence (P23275 1-312): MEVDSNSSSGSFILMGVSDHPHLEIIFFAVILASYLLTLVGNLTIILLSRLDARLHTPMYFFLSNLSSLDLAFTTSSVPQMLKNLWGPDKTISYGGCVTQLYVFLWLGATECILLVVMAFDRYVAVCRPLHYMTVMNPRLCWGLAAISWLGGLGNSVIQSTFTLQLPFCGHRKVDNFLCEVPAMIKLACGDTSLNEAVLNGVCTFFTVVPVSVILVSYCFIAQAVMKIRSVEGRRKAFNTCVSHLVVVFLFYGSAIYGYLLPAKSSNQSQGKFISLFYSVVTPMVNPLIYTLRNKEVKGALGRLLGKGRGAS
The description is as above. Format: cell-based. Conditions: receptor MOR256-17; read-out: log EC50 of odorant at MOR256-17 (0 = no response) (converted).

In another assay the test system is MOR2-1. The experiment in a line: CRE-luciferase assay of odorant receptor activation, enantiomeric pairs. Format: cell-based, mouse. Particulars: CRE-luciferase in Hana3A cells; at some doses; compared with the other enantiomer; FIG. 6. An excerpt: OR open reading frames were amplified from genomic DNA using proofreading KOD DNA polymerase (Toyobo/Novagen) and subcloned into pCI expression vectors (Promega) containing the first 20 residues of human rhodopsin (Rho tag). The sequences of the cloned receptors were verified by sequencing (3100 Genetic Analyzer, ABI Biosystems). Immunocytochemistry and FACS analysis. […] For FACS analysis, phycoerythrin (PE)-conjugated anti-mouse IgG (Jackson Immunologicals) was used. In order to monitor the transfection efficiency, Green Fluorescent Protein (GFP) was co-transfected with the OR. The intensity of receptor cell surface expression was calculated as the ratio of PE and GFP expression. 7-aminoactinomycin D (Calbiochem) was added before flow cytometry to mark dead cells which were excluded from the analysis. The gate and mean of PE positive cells was normalized by GFP values. Luciferase assay. […] All luminescence values were divided by the Renilla Luciferase activity to control for transfection efficiency in a given well. […] Each comparison was performed in triplicate; statistical significance was assessed by t-test (uncorrected for multiple comparisons). […] For all remaining odorant pairs the Pearson correlation between EC50 vectors and the Euclidean distance between descriptor vectors was calculated. The Pearson correlation between these two sets of distances was then measured. […]

The next assay relates to MOR107-1. The description is as above. It counts as cell-based, mouse. Conditions: CRE-luciferase in Hana3A cells; (+) versus (−) enantiomer; FIG. 6.
Text: as §1

As for `CC1(C)C(=O)[C@@]2(C)CCC1C2` (single isomer, unassigned; (+)) [(+) enantiomer of fenchone, (+)-Fenchone], in the assay on MOR271-1, the “activation of MOR271-1” value was “only activated by the (+) enantiomer”. Besides, in assay [1], the “log EC50, MOR138-1” value was −4.626; the “log EC50, MOR139-1” value is on record as −3.773; the “log EC50, MOR189-1” value is given as −4.423; the “log EC50, MOR272-1” value is −4.35. In addition, in assay [1], the “log EC50, MOR273-1” value is listed as −4.073. The “log EC50, MOR271-1” value in assay [1] (receptor MOR271-1) is listed as −4.859.

By EC50 is commonly meant the concentration that produces a half-maximal response. As for `CCC(=O)O` [Propionic acid], the EC50 in assay [2] is 109 µM.

As for `CC(C)(O)CCCC1=CCC(C=O)CC1` (stereo not shown) [Lyral], the EC50 in assay [3] is 324 µM; in assay [4] it was 55.6 µM.

For the compound `CCC(C(=O)O)c1ccccc1` (single isomer, unassigned; (+)) [(+) enantiomer of 2-phenylbutyric acid, (+)-2-Phenylbutyric acid], in the assay with MOR2-1, the “response of MOR2-1” value is “responded more strongly”. For the same compound, in assay [1] (receptor MOR2-1), the “log EC50, MOR2-1” value is recorded as −3.499.

Consider `CC1(C)C(=O)[C@]2(C)CCC1C2` (single isomer, unassigned; (-)) [(−) enantiomer of fenchone, (−)-Fenchone], for which the “activation of MOR107-1” value in the assay on MOR107-1 is given as “activated only by the (−) enantiomer”. For the same compound, in assay [1] (receptor MOR107-1), the “log EC50, MOR107-1” value was −4.302. Besides, in assay [1], the “log EC50, MOR138-1” value was −4.481; the “log EC50, MOR139-1” value is listed as −3.879; the “log EC50, MOR189-1” value is reported as −4.239; the “log EC50, MOR272-1” value is −3.558. In addition, the “log EC50, MOR273-1” value in assay [1] is on record as −5.231.
